Laboratory results published in ChEMBL document CHEMBL5465560, “Selectivity Literature for EUbOPEN Chemogenomic Library” (2024).
Changes are numbered by the printed parent chain.

Columns and labels:
Conditions in all cases: at 10 µM
[1] = tested on: T1, Receptor-type tyrosine-protein kinase FLT3 (Homo sapiens), P36888 [D835H]; experiment: (§1) Selectivity interaction (KinomeScan (DiscoverX)) EUB0000666a FLT3
T1 sequence (whole entry): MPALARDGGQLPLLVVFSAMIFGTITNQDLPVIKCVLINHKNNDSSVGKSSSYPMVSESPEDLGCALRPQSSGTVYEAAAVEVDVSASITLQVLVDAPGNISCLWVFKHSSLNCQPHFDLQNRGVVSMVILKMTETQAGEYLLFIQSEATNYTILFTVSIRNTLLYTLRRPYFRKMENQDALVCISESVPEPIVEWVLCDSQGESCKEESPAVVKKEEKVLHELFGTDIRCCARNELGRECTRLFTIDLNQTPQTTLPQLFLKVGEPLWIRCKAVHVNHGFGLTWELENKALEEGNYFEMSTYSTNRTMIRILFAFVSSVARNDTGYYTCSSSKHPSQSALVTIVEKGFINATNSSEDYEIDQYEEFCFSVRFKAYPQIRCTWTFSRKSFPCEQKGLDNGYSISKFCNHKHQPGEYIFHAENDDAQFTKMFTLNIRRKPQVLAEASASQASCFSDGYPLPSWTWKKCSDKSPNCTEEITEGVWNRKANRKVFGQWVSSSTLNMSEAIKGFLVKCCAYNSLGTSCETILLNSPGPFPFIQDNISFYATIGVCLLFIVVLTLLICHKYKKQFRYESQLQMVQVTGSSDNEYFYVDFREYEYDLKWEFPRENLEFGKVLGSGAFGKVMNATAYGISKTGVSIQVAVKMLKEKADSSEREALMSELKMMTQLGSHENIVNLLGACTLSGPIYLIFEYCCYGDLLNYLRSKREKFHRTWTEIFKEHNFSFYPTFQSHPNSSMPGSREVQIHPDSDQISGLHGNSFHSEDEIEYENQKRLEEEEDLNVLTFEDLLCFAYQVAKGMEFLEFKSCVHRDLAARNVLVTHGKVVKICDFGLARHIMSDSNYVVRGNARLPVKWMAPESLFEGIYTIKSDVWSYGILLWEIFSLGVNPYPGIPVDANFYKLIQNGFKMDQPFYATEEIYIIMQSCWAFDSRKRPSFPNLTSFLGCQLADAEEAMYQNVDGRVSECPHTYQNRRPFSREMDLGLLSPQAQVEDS

[2] = tested on: T2, Receptor-type tyrosine-protein kinase FLT3 (Homo sapiens), P36888 [D835Y]; experiment: as §1
T2 sequence (whole entry): T1 sequence (whole entry) with H835Y

[3] = tested on: T3, Receptor-type tyrosine-protein kinase FLT3 (Homo sapiens), P36888 [R834Q]; experiment: as §1
T3 sequence (whole entry): T1 sequence (whole entry) with R834Q, H835D

[4] = tested on: Receptor-type tyrosine-protein kinase FLT3 (Homo sapiens), P36888 [UNDEFINED MUTATION]; experiment: as §1

## O=C(NOC[C@H](O)CO)c1ccc(F)c(F)c1Nc1ccc(I)cc1F
[1]
  % of control: 87%
[2]
  % of control: 100%
[3]
  % of control: 78%
[4]
  % of control: 100%
